Tests used:
Type in all cases: in vivo
Bemisia tabaci ESP-00 [1] = test: Leaf-dip bioassay, 2nd-instar nymphs, multi-resistant strain ESP-00
Experimental: (§1) Larvale Tauch-Bioassays wurden mit geringfügigen Änderungen gemäß Elbert und Nauen (1996) durchgeführt. Die echten Blätter einer drei Wochen alten Baumwollpflanze wurden alle außer einem entfernt. Das verbleibende Blatt wurde auf eine Größe von ca. 15-20 cm^2 zurechtgeschnitten. Die Pflanzen wurden ohne Verwendung von Clip-Käfigen mit adulten Weißen Fliegen infiziert (ca. 20-30 adulte Tiere pro Blatt für 6-7 h). Die Weißen Fliegen wurden dann entfernt und zum geeigneten Zeitpunkt (gewöhnlich nach 10-12 d wenn die Nymphen im zweiten Stadium vorherrschten) wurden die infizierten Blätter für 5 sec in serielle wässrige Insektizidlösungen (s.o.) getaucht. Die prozentuale Mortalität wurde an Tag 21-23 bei ca. 24 °C gemessen, sobald alle Überlebenden die Puppenstadien durchschritten hatten. Jedes Insektizid wurde mindestens dreifach mit 2- oder 3-fach Bestimmungen pro Konzentration getestet.
(§2) LC50-Werte wurden aus Probit-Regressionen unter Verwendung des Computerprogramms POLO-PC 2 (LeOra Software, Berkeley, USA) berechnet.
(§3) Tabelle 1. Log-Dosis Probit Mortalitätsdaten für verschiedene Klassen von Insektiziden erhalten aus Blatt-Tauch-Bioassays gegen adulte Tiere zweier Bemisia tabaci Stämme, SUD-S und ESP-00, die bekanntermaßen Insektizid-empfindlich (SUD-S) bzw. multiresistent (ESP-00) sind (Stumpf und Nauen, 2003). Mortalität wurde nach 72 h bestimmt, mit Ausnahme von Buprofezin (10-12 d).

Bemisia tabaci ESP-00 [2] = test: Leaf-dip bioassay, adult whiteflies, multi-resistant strain ESP-00; details: adults; for ESP-00 LC50: multi-resistant strain ESP-00, mortality after 72 h
Description: (§4) Es wurden Versuche durchgeführt, um die überlegene Blattwirkung von Enaminocarbonylverbindungen gegen adulte Tiere eines Stamms von Bemisia tabaci zu zeigen, der bekanntermaßen resistent ist gegen Neonikotinoid-Insektizide sowie andere Insektizidklassen, einschließlich Insekten-Wachstumsregulatoren (wie Buprofezin) und Antifeedants (Substanzen, die einen Schaderreger vom Fraß abhalten) (wie Pymetrozin).
(§5) Baumwollblattscheiben (30 mm im Durchmesser) wurden für 5 sec in wässrige Lösungen technischer Insektizide, enthaltend 0,2 g/l Triton-X-100 als nicht-ionisches Benetzungsmittel, getaucht. Luftgetrocknete Blattscheiben wurden dann mit der adaxialen Seite nach unten auf ein Agarbett (12 g/l) in einer kleinen Petrischale (40 mm im Durchmesser) gelegt. Adulte Weiße Fliegen wurden mittels eines Vakuum-getriebenen Aspirators aus Aufzuchtkäfigen eingesammelt und 20 adulte Tiere wurden nach kurzer CO2-Narkose auf die Blattscheiben gelegt. Anschließend wurde jede Petrischale mit einem belüfteten Deckel verschlossen und umgedreht aufbewahrt. Nach 72 h wurde die Mortalität der Weißen Fliegen bestimmt. Jedes Insektizid wurde mindestens dreifach mit 2-oder 3-fach Bestimmungen pro Konzentration getestet.
as §2, §3

Bemisia tabaci SUD-S [3] = test: Leaf-dip bioassay, 2nd-instar nymphs, insecticide-susceptible strain SUD-S; details: nymphs in 2nd stage, mortality 10-12 d
Experimental: as §1, with “Die prozentuale Mortalität wurde an Tag 21-23 bei ca. 24 °C gemessen, sobald alle Überlebenden die Puppenstadien durchschritten hatten.” left out
as §2, §3

Bemisia tabaci SUD-S [4] = test: Leaf-dip bioassay, adult whiteflies, insecticide-susceptible strain SUD-S; details: adults, mortality after 72 h
Description: as §4, §5, §2, §3

Row | Structure (SMILES) | Kreuzresistenz von Nymphen im zweiten Stadium des Stamms ESP-00 (Bemisia tabaci ESP-00 [1]; 2nd-stage nymphs, result in words) | ESP-00 LC50 (Bemisia tabaci ESP-00 [1]; nymphs in 2nd stage, multi-resistant strain ESP-00, mortality 10-12 d) | akute Kurzzeiteffekte gegen adulte Tiere von B. tabaci (Bemisia tabaci ESP-00 [2]; strain not specified, result in words) | SUD-S LC50 (Bemisia tabaci SUD-S [3]) | ESP-00 LC50 (Bemisia tabaci ESP-00 [2]) | SUD-S LC50 (Bemisia tabaci SUD-S [4]) | Resistenz / Kreuz-resistenz von adulten B. tabaci Tieren des Stamms ESP-00 im Vergleich zu SUD-S (Bemisia tabaci ESP-00 [2]; leaf-dip, result in words)
1 | CC(C)N1C(=O)N(c2ccccc2)CS/C1=N\C(C)(C)C [Buprofezin] | starke Kreuzresistenz | 260 ppm | keine akuten Kurzzeiteffekte | 0.27 ppm | – | – | –
2 | CN/C(=N/CC1CCOC1)N[N+](=O)[O-] (centres unmarked) [Dinotefuran] | – | – | – | – | 9.8 ppm | 0.17 ppm | –
3 | CN1COCN(Cc2cnc(Cl)s2)/C1=N\[N+](=O)[O-] [Thiamethoxam] | – | – | – | – | 76 ppm | 1.1 ppm | –
4 | CC1=NNC(=O)N(/N=C/c2cccnc2)C1 [Pymetrozin] | – | – | – | – | 360 ppm | 0.49 ppm | starke Resistenz
